According to US20080182874A1, “Novel Compounds” (priority 2004, published 2008):
Read-outs that look alike come from different tables or passages of the source.

Columns and labels:
[1] = biological target: T1, P2X7 receptor (Homo sapiens, UniProt Q99572); experiment: bbATP-induced ethidium bromide uptake in THP-1 cells (P2X7 antagonist activity); type: cell-based
T1 construct: 200 μl of a suspension of THP-1 cells (2.5×10^6 cells/ml) containing 10^−4M ethidium bromide; endogenous in cells; host or cells: THP-1 cells
T1 sequence (Q99572 1-595): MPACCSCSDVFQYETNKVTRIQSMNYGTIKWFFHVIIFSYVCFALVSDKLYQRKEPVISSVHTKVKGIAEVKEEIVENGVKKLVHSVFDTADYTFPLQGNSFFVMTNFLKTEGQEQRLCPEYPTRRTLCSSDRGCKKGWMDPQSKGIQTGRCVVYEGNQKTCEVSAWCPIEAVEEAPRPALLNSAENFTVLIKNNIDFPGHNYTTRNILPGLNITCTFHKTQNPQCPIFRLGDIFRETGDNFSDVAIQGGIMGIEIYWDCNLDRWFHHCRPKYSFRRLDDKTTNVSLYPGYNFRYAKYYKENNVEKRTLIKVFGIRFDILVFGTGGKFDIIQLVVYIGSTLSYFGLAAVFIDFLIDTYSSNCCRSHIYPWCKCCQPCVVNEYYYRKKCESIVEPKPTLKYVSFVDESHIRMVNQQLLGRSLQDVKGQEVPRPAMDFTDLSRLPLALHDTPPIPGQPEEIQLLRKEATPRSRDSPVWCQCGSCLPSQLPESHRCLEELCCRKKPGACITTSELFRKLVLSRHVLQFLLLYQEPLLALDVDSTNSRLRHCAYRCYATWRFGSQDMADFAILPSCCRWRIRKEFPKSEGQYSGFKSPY
Source text: Certain compounds such as benzoylbenzoyl adenosine triphosphate (bbATP) are known to be agonists of the P2X7 receptor, effecting the formation of pores in the plasma membrane (Drug Development Research (1996), 37(3), p. 126). Consequently, when the receptor is activated using bbATP in the presence of ethidium bromide (a fluorescent DNA probe), an increase in the fluorescence of intracellular DNA-bound ethidium bromide is observed. The increase in fluorescence can be used as a measure of P2X7 receptor activation and therefore to quantify the effect of a compound on the P2X7 receptor.
In this manner, each of the title compounds of the Examples was tested for antagonist activity at the P2X7 receptor. […] The plate was covered with a plastics sheet and incubated at 37° C. for one hour. The plate was then read in a Perkin-Elmer fluorescent plate reader, excitation 520 nm, emission 595 nm, slit widths: Ex 15 nm, Em 20 nm. For the purposes of comparison, bbATP (a P2X7 receptor agonist) and pyridoxal 5-phosphate (a P2X7 receptor antagonist) were used separately in the test as controls.

Row | Structure (SMILES) | melting point [°C] | IC50 ([1]; THP-1 cells, 10^-5M bbATP agonist, ethidium bromide fluorescence, 37° C. for one hour, negative logarithm of concentration reducing bbATP agonist activity by 50%, read-out: pIC50 (converted)) [nM] | IC50 [1] [nM]
1 | O=C(O)CN1CCN(c2ccc3c(C(=O)NCC45CC6CC(CC(C6)C4)C5)c(Cl)ccc3n2)CC1 [Example 5, 4-[6-Chloro-5-[[(tricyclo[3.3.1.1^3,7]dec-1-ylmethyl)amino]carbonyl]-2-quinolinyl]-1-piperazineacetic acid] | 179 to 183 |  | 
2 | O=C(NCC12CC3CC(CC(C3)C1)C2)c1c(Cl)ccc2nc(N3CC[C@H](NCCc4nnn[nH]4)C3)ccc12 [Example 6, 6-Chloro-2-[(3S)-3-[[2-(2H-tetrazol-5-yl)ethyl]amino]-1-pyrrolidinyl]-N-(tricyclo[3.3.1.1^3,7]dec-1-ylmethyl)-5-quinolinecarboxamide] | 174 to 177 |  | 
3 | O=C(O)CCN[C@H]1CCCN(c2ccc3c(C(=O)NCC45CC6CC(CC(C6)C4)C5)c(Cl)ccc3n2)C1 [Example 12, N-[(3S)-1-[6-Chloro-5-[[(tricyclo[3.3.1.1^3,7]dec-1-ylmethyl)amino]carbonyl]-2-quinolinyl]-3-piperidinyl]-β-alanine] | 176 to 189 |  | 15.8
4 | O=C(O)CC1CCN(c2ccc3c(C(=O)NCC45CC6CC(CC(C6)C4)C5)c(Cl)ccc3n2)CC1 [Example 8, 1-[6-Chloro-5-[[(tricyclo[3.3.1.1^3,7]dec-1-ylmethyl)amino]carbonyl]-2-quinolinyl]-4-piperidineacetic acid] | 212 to 214 |  | 
5 | O=C(NCC12CC3CC(CC(C3)C1)C2)c1c(Cl)ccc2nc(N3C[C@@H]4[C@H](C3)[C@H]4C(=O)O)ccc12 [Example 19, (1R,5S)-3-[6-Chloro-5-[[(tricyclo[3.3.1.1^3,7]dec-1-ylmethyl)amino]carbonyl]-2-quinolinyl]-3-azabicyclo[3.1.0]hexane-6-carboxylic acid] | 175 to 180 |  | 
6 | O=C(NCC12CC3CC(CC(C3)C1)C2)c1c(Cl)ccc2nc(N3CCC(C(=O)O)(c4ccccc4)CC3)ccc12 [Example 18, 1-[6-Chloro-5-[[(tricyclo[3.3.1.1^3,7]dec-1-ylmethyl)amino]carbonyl]-2-quinolinyl]-4-phenyl-4-piperidinecarboxylic acid] | 235 to 237 |  | 
7 | O=C(NCC12CC3CC(CC(C3)C1)C2)c1c(Cl)ccc2nc(N3CCC(n4cn[nH]c4=O)CC3)ccc12 [Example 4, 6-Chloro-2-[4-(1,5-dihydro-5-oxo-4H-1,2,4-triazol-4-yl)-1-piperidinyl]-N-(tricyclo[3.3.1.1^3,7]dec-1-ylmethyl)-5-quinolinecarboxamide] | 294 to 295 |  | 
8 | O=C(NCC12CC3CC(CC(C3)C1)C2)c1c(Cl)ccc2nc(N3CCC(C(=O)O)CC3)ccc12 [Example 7, 1-[6-Chloro-5-[[(tricyclo[3.3.1.1^3,7]dec-1-ylmethyl)amino]carbonyl]-2-quinolinyl]-4-piperidinecarboxylic acid] | 231 to 235 |  | 
9 | O=C(NCC12CC3CC(CC(C3)C1)C2)c1c(Cl)ccc2nc(N3CCC(O)(C(=O)O)CC3)ccc12 [Example 17, 1-[6-Chloro-5-[[(tricyclo[3.3.1.1^3,7]dec-1-ylmethyl)amino]carbonyl]-2-quinolinyl]-4-hydroxy-4-piperidinecarboxylic acid] | 200 to 204 |  | 
10 | O=C(NCC12CC3CC(CC(C3)C1)C2)c1c(Cl)ccc2nc(N3CCC[C@@H]3C(=O)O)ccc12 [Example 2, 1-[6-Chloro-5-[[(tricyclo[3.3.1.1^3,7]dec-1-ylmethyl)amino]carbonyl]-2-quinolinyl]-D-proline] | 157 to 160 |  | 
11 | O=C(CC12CC3CC(CC(C3)C1)C2)Nc1c(Cl)ccc2nc(N3CCC(C(=O)O)CC3)ccc12 [Example 1, 1-[6-Chloro-5-[(tricyclo[3.3.1.1^3,7]dec-1-ylacetyl)amino]-2-quinolinyl]-4-piperidinecarboxylic acid] | 240 to 241 |  | 
12 | O=C(NCC12CC3CC(CC(C3)C1)C2)c1c(Cl)ccc2nc(CCCCc3nnn[nH]3)ccc12 [Example 9, 6-Chloro-2-[4-(2H-tetrazol-5-yl)butyl]-N-(tricyclo[3.3.1.1^3,7]dec-1-ylmethyl)-5-quinolinecarboxamide] | 221 |  | 
13 | O=C(NCC12CC3CC(CC(C3)C1)C2)c1c(Cl)ccc2nc(N3CCC[C@@H](C(=O)O)C3)ccc12 [Example 3, 1-[6-Chloro-5-[[(tricyclo[3.3.1.1^3,7]dec-1-ylmethyl)amino]carbonyl]-2-quinolinyl]-(3R)-3-piperidinecarboxylic acid] | 257 to 262 |  | 79.4

The next lines start with results.

Row | melting point [°C] | IC50 ([1]; THP-1 cells, 10^-5M bbATP agonist, ethidium bromide fluorescence, 37° C. for one hour, negative logarithm of concentration reducing bbATP agonist activity by 50%, read-out: pIC50 (converted)) [nM] | Structure (SMILES) | IC50 [1] [nM]
14 | 247 |  | O=C(O)c1cncc(-c2ccc3c(C(=O)NCC45CC6CC(CC(C6)C4)C5)c(Cl)ccc3n2)c1 [Example 28, 5-[6-Chloro-5-[[(tricyclo[3.3.1.1^3,7]dec-1-ylmethyl)amino]carbonyl]-2-quinolinyl]-3-pyridinecarboxylic acid] | 
15 | 251 to 252 |  | O=C(O)CCNc1ccc2c(C(=O)NCC34CC5CC(CC(C5)C3)C4)c(Cl)ccc2n1 [Example 27, N-[6-Chloro-5-[[(tricyclo[3.3.1.1^3,7]dec-1-ylmethyl)amino]carbonyl]-2-quinolinyl]-β-alanine] | 
16 | 170 to 173 |  | CS(=O)(=O)NC(=O)C1CCN(c2ccc3c(C(=O)NCC45CC6CC(CC(C6)C4)C5)c(Cl)ccc3n2)CC1 [Example 20, 6-Chloro-2-[4-[[(methylsulfonyl)amino]carbonyl]-1-piperidinyl]-N-(tricyclo[3.3.1.1^3,7]dec-1-ylmethyl)-5-quinolinecarboxamide] | 
17 | 156 to 158 |  | O=C(O)c1ccccc1-c1ccc2c(C(=O)NCC34CC5CC(CC(C5)C3)C4)c(Cl)ccc2n1 [Example 23, 2-[6-Chloro-5-[[(tricyclo[3.3.1.1^3,7]dec-1-ylmethyl)amino]carbonyl]-2-quinolinyl]-benzoic acid] | 
18 | 316 to 317 |  | O=C(O)c1ccc(-c2ccc3c(C(=O)NCC45CC6CC(CC(C6)C4)C5)c(Cl)ccc3n2)cc1 [Example 25, 4-[6-Chloro-5-[[(tricyclo[3.3.1.1^3,7]dec-1-ylmethyl)amino]carbonyl]-2-quinolinyl]-benzoic acid] | 
19 | 189 to 196 |  | O=C(NCC12CC3CC(CC(C3)C1)C2)c1c(Cl)ccc2nc(N3CCC(C(=O)NO)CC3)ccc12 [Example 21, 6-chloro-2-[4-[(hydroxyamino)carbonyl]-1-piperidinyl]-N-(tricyclo[3.3.1.1^3,7]dec-1-ylmethyl)-5-quinolinecarboxamide] | 
20 |  | 63.1 | O=C(O)c1cccc(-c2ccc3c(C(=O)NCC45CC6CC(CC(C6)C4)C5)c(Cl)ccc3n2)c1 [Example 24, 3-[6-Chloro-5-[[(tricyclo[3.3.1.1^3,7]dec-1-ylmethyl)amino]carbonyl]-2-quinolinyl]-benzoic acid] | 
